Source: ChEMBL document CHEMBL1201861, “Genomics of Drug Sensitity in Cancer screening data, Wellcome Trust Sanger Institute”
pIC50: −log10 of the molar value.

Assays:
[1] = test system: KMS-12-PE; assay: cells; format: functional, cell-based; conditions: Homo sapiens;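 also: growth inhibition of human KMS-12-PE cells, measured with a cell viability assay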
Description: SANGER: Inhibition of human KMS-12-PE cell growth in a cell viability assay.

[2] = test system: NCI-H2141; assay: cells; format: functional, cell-based; conditions: Homo sapiens;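 also: growth inhibition of human NCI-H2141 cells, read out with a cell viability assay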
Description: SANGER: Inhibition of human NCI-H2141 cell growth in a cell viability assay.

[3] = test system: LP-1; assay: cells; format: functional, cell-based; conditions: Homo sapiens;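 also: growth inhibition of human LP-1 cells, with the read-out taken from a cell viability assay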
Description: SANGER: Inhibition of human LP-1 cell growth in a cell viability assay.

[4] = test system: SNU-C1; assay: cells; format: functional, cell-based; conditions: Homo sapiens;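 also: growth inhibition of SNU-C1 human cells, read out by a cell viability assay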
Description: SANGER: Inhibition of human SNU-C1 cell growth in a cell viability assay.

[5] = test system: SIG-M5; assay: cells; format: functional, cell-based; conditions: Homo sapiens;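 also: cell viability assay read-out, measuring how strongly growth of cultured human SIG-M5 cells is inhibited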
Description: SANGER: Inhibition of human SIG-M5 cell growth in a cell viability assay.

[6] = test system: NCI-H716; assay: cells; format: functional, cell-based; conditions: Homo sapiens;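 also: growth inhibition of human NCI-H716 cells, measured by a cell viability assay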
Description: SANGER: Inhibition of human NCI-H716 cell growth in a cell viability assay.

[7] = test system: KARPAS-422; assay: cells; format: functional, cell-based; conditions: Homo sapiens
Description: SANGER: Inhibition of human KARPAS-422 cell growth in a cell viability assay.

[8] = test system: ARH-77; assay: cells; format: functional, cell-based; conditions: Homo sapiens;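 also: growth inhibition of ARH-77 cells, read out by a cell viability assay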
Description: SANGER: Inhibition of human ARH-77 cell growth in a cell viability assay.

[9] = test system: WSU-NHL; assay: cells; format: functional, cell-based; conditions: Homo sapiens;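 also: growth inhibition of human WSU-NHL cells, read out with a cell viability assay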
Description: SANGER: Inhibition of human WSU-NHL cell growth in a cell viability assay.

[10] = test system: NCI-H1522; assay: cells; format: functional, cell-based; conditions: Homo sapiens;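 also: growth inhibition of NCI-H1522 cells, read out with a cell viability assay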
Description: SANGER: Inhibition of human NCI-H1522 cell growth in a cell viability assay.

[11] = test system: NCI-H1882; assay: cells; format: functional, cell-based; conditions: Homo sapiens;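 also: growth inhibition of the cell line, determined with a viability assay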
Description: SANGER: Inhibition of human NCI-H1882 cell growth in a cell viability assay.

[12] = test system: SIMA; assay: cells; format: functional, cell-based; conditions: Homo sapiens;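 also: growth inhibition of SIMA cells, measured with a cell viability readout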
Description: SANGER: Inhibition of human SIMA cell growth in a cell viability assay.

[13] = test system: Kasumi 1; assay: cells; format: functional, cell-based; conditions: Homo sapiens;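 also: growth inhibition of human Kasumi-1 cells, read out by a cell viability assay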
Description: SANGER: Inhibition of human KASUMI-1 cell growth in a cell viability assay.

[14] = test system: NCI-H345; assay: cells; format: functional, cell-based; conditions: Homo sapiens;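 also: growth inhibition of NCI-H345 cells measured with a cell viability assay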
Description: SANGER: Inhibition of human NCI-H345 cell growth in a cell viability assay.

[15] = test system: RPMI-6666; assay: cells; format: functional, cell-based; conditions: Homo sapiens
Description: SANGER: Inhibition of human RPMI-6666 cell growth in a cell viability assay.

[16] = test system: THP-1; assay: cells; format: functional, cell-based; conditions: Homo sapiens;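 also: growth inhibition of THP-1 cells, read out via a cell viability assay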
Description: SANGER: Inhibition of human THP-1 cell growth in a cell viability assay.

[17] = test system: IMR-5; assay: cells; format: functional, cell-based; conditions: Homo sapiens;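 also: growth inhibition of human IMR-5 cells, read out with a cell viability assay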
Description: SANGER: Inhibition of human IMR-5 cell growth in a cell viability assay.

[18] = test system: MC-CAR; assay: cells; format: functional, cell-based; conditions: Homo sapiens;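 also: growth inhibition of the human MC-CAR cell line, read out by a cell viability assay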
Description: SANGER: Inhibition of human MC-CAR cell growth in a cell viability assay.

[19] = test system: NCCIT; assay: SANGER: Inhibition of human NCCIT cell growth in a cell viability assay.; format: functional, cell-based
[20] = test system: D-392MG; assay: cells; format: functional, cell-based; conditions: Homo sapiens
[21] = test system: 769-P; assay: cells; format: functional, cell-based; conditions: Homo sapiens
Description: SANGER: Inhibition of human 769-P cell growth in a cell viability assay.

[22] = test system: SW1088; assay: cells; format: functional, cell-based; conditions: Homo sapiens;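 also: growth inhibition of human SW1088 cells, read out by a cell viability assay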
Description: SANGER: Inhibition of human SW1088 cell growth in a cell viability assay.

[23] = test system: LN-405; assay: cells; format: functional, cell-based; conditions: Homo sapiens
Description: SANGER: Inhibition of human LN-405 cell growth in a cell viability assay.

[24] = test system: NCI-H1792; assay: cells; format: functional, cell-based; conditions: Homo sapiens;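 also: growth inhibition of human NCI-H1792 cells, read out as cell viability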
Description: SANGER: Inhibition of human NCI-H1792 cell growth in a cell viability assay.

[25] = test system: NCI-H1793; assay: cells; format: functional, cell-based; conditions: Homo sapiens;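 also: cell growth inhibition, read out by a cell viability assay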
Description: SANGER: Inhibition of human NCI-H1793 cell growth in a cell viability assay.

[26] = test system: CAPAN-1; assay: cells; format: functional, cell-based; conditions: Homo sapiens;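 also: growth suppression of CAPAN-1 cells, read out by a cell viability assay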
Description: SANGER: Inhibition of human CAPAN-1 cell growth in a cell viability assay.

[27] = test system: BXPC-3; assay: cells; format: functional, cell-based; conditions: Homo sapiens;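 also: growth inhibition of human BxPC-3 cells, read out by a cell viability assay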
Description: SANGER: Inhibition of human BxPC-3 cell growth in a cell viability assay.

[28] = test system: EFO-27; assay: cells; format: functional, cell-based; conditions: Homo sapiens;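 also: growth inhibition of EFO-27 cells, read out with a cell viability assay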
Description: SANGER: Inhibition of human EFO-27 cell growth in a cell viability assay.

[29] = test system: SW1463; assay: cells; format: functional, cell-based; conditions: Homo sapiens;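 also: growth inhibition of SW1463 cells, determined with a cell viability assay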
Description: SANGER: Inhibition of human SW1463 cell growth in a cell viability assay.

[30] = test system: Daoy; assay: cells; format: functional, cell-based; conditions: Homo sapiens;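 also: daoy cell growth inhibition, read out as cell viability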
Description: SANGER: Inhibition of human Daoy cell growth in a cell viability assay.

[31] = test system: C-33-A; assay: cells; format: functional, cell-based; conditions: Homo sapiens;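 also: cell viability assay measuring growth inhibition of C-33-A cells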
Description: SANGER: Inhibition of human C-33-A cell growth in a cell viability assay.

[32] = test system: T84; assay: cells; format: functional, cell-based; conditions: Homo sapiens;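 also: growth inhibition measured with a cell viability readout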
Description: SANGER: Inhibition of human T84 cell growth in a cell viability assay.

[33] = test system: KYSE-520 cell line; assay: cells; format: functional, cell-based; conditions: Homo sapiens;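 also: growth inhibition of human KYSE-520 cells, read out with a viability assay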
Description: SANGER: Inhibition of human KYSE-520 cell growth in a cell viability assay.

[34] = test system: NCI-H2087; assay: cells; format: functional, cell-based; conditions: Homo sapiens;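 also: growth inhibition determined with a cell viability readout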
Description: SANGER: Inhibition of human NCI-H2087 cell growth in a cell viability assay.

[35] = test system: A-427; assay: cells; format: functional, cell-based; conditions: Homo sapiens;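 also: growth inhibition of human A-427 cells, read out by a cell viability assay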
Description: SANGER: Inhibition of human A427 cell growth in a cell viability assay.

[36] = test system: HLE; assay: cells; format: functional, cell-based; conditions: Homo sapiens;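 also: growth inhibition of human HLE cells, read out by a cell viability assay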
Description: SANGER: Inhibition of human HLE cell growth in a cell viability assay.

[37] = test system: HCC1569; assay: cells; format: functional, cell-based; conditions: Homo sapiens;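 also: growth inhibition of human HCC1569 cells, read out with a cell viability assay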
Description: SANGER: Inhibition of human HCC1569 cell growth in a cell viability assay.

[38] = test system: MDA-MB-415; assay: cells; format: functional, cell-based; conditions: Homo sapiens
[39] = test system: KOSC-2; assay: cells; format: functional, cell-based; conditions: Homo sapiens;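 also: growth inhibition of KOSC-2 cells, read out by a cell viability assay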
Description: SANGER: Inhibition of human KOSC-2 cell growth in a cell viability assay.

[40] = test system: SJRH30; assay: cells; format: functional, cell-based; conditions: Homo sapiens;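 also: growth inhibition of human SJRH30 cells, read out with a cell viability assay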
Description: SANGER: Inhibition of human SJRH30 cell growth in a cell viability assay.

[41] = test system: SN12C; assay: cells; format: functional, cell-based; conditions: Homo sapiens;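 also: growth inhibition of human SN12C cells, measured by a cell viability assay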
Description: SANGER: Inhibition of human SN12C cell growth in a cell viability assay.

[42] = test system: RT-112; assay: cells; format: functional, cell-based; conditions: Homo sapiens
Description: SANGER: Inhibition of human RT-112 cell growth in a cell viability assay.

[43] = test system: SW948; assay: cells; format: functional, cell-based; conditions: Homo sapiens;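 also: growth inhibition of SW948 cells, read out with a cell viability assay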
Description: SANGER: Inhibition of human SW948 cell growth in a cell viability assay.

[44] = test system: CAL-27; assay: cells; format: functional, cell-based; conditions: Homo sapiens;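 also: Viability-based readout, IC50 reflecting inhibition of CAL-27 cell growth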
Description: SANGER: Inhibition of human CAL-27 cell growth in a cell viability assay.

[45] = test system: UMC-11; assay: cells; format: functional, cell-based; conditions: Homo sapiens;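 also: growth inhibition of UMC-11 cells, read out with a cell viability assay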
Description: SANGER: Inhibition of human UMC-11 cell growth in a cell viability assay.

[46] = test system: ABC-1; assay: cells; format: functional, cell-based; conditions: Homo sapiens;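 also: growth inhibition of human ABC-1 cells, read out by a cell viability assay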
Description: SANGER: Inhibition of human ABC-1 cell growth in a cell viability assay.

[47] = test system: WM-115; assay: cells; format: functional, cell-based; conditions: Homo sapiens
Description: SANGER: Inhibition of human WM-115 cell growth in a cell viability assay.

[48] = test system: PANC-03-27; assay: cells; format: functional, cell-based; conditions: Homo sapiens
Description: SANGER: Inhibition of human PANC-03-27 cell growth in a cell viability assay.

[49] = test system: FaDu; assay: cells; format: functional, cell-based; conditions: Homo sapiens;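 also: cell viability readout of growth inhibition in FaDu cells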
Description: SANGER: Inhibition of human FADU cell growth in a cell viability assay.

[50] = test system: 5637; assay: cells; format: functional, cell-based; conditions: Homo sapiens
Description: SANGER: Inhibition of human 5637 cell growth in a cell viability assay.

[51] = test system: HT1197; assay: cells; format: functional, cell-based, HT-1197; conditions: Homo sapiens
Description: SANGER: Inhibition of human HT-1197 cell growth in a cell viability assay.

[52] = test system: LoVo; assay: cells; format: functional, cell-based; conditions: Homo sapiens;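 also: growth inhibition of human LoVo cells, read out with a cell viability assay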
Description: SANGER: Inhibition of human LoVo cell growth in a cell viability assay.

[53] = test system: NCI-H2452; assay: cells; format: functional, cell-based; conditions: Homo sapiens;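 also: growth inhibition of NCI-H2452 cells, read out with a cell viability assay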
Description: SANGER: Inhibition of human NCI-H2452 cell growth in a cell viability assay.

[54] = test system: HGC-27; assay: cells; format: functional, cell-based; conditions: Homo sapiens;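 also: growth inhibition of human HGC-27 cells, read out in a cell viability assay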
Description: SANGER: Inhibition of human HGC-27 cell growth in a cell viability assay.

[55] = test system: 8505C; assay: cells; format: functional, cell-based; conditions: Homo sapiens
Description: SANGER: Inhibition of human 8505C cell growth in a cell viability assay.

[56] = test system: CaR-1; assay: cells; format: functional, cell-based; conditions: Homo sapiens;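 also: growth inhibition of human CaR-1 cancer cells, read out with a cell viability assay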
Description: SANGER: Inhibition of human CaR-1 cell growth in a cell viability assay.

[57] = test system: GAMG; assay: cells; format: functional, cell-based; conditions: Homo sapiens;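 also: cell growth inhibition measured by a viability assay in the GAMG human cell line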
Description: SANGER: Inhibition of human GAMG cell growth in a cell viability assay.

[58] = test system: 786-0; assay: cells; format: functional, cell-based; conditions: Homo sapiens
Description: SANGER: Inhibition of human 786-0 cell growth in a cell viability assay.

[59] = test system: CAL-62; assay: cells; format: functional, cell-based; conditions: Homo sapiens;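 also: growth inhibition of CAL-62 cells, read out with a cell viability assay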
Description: SANGER: Inhibition of human CAL-62 cell growth in a cell viability assay.

[60] = test system: SW837; assay: cells; format: functional, cell-based; conditions: Homo sapiens;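 also: growth inhibition of SW837 cells, determined with a cell viability assay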
Description: SANGER: Inhibition of human SW837 cell growth in a cell viability assay.

[61] = test system: 639-V; assay: cells; format: functional, cell-based; conditions: Homo sapiens;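 also: growth inhibition of 639-V cells, read out with a cell viability assay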
Description: SANGER: Inhibition of human 639-V cell growth in a cell viability assay.

[62] = test system: SK-N-AS; assay: cells; format: functional, cell-based; conditions: Homo sapiens;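 also: growth inhibition of human SK-N-AS cells, measured with a cell viability assay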
Description: SANGER: Inhibition of human SK-N-AS cell growth in a cell viability assay.

[63] = test system: DMS-273; assay: cells; format: functional, cell-based; conditions: Homo sapiens
Description: SANGER: Inhibition of human DMS-273 cell growth in a cell viability assay.

[64] = test system: SW13; assay: cells; format: functional, cell-based; conditions: Homo sapiens;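 also: IC50 is inhibition of SW13 cell growth, read out with a cell viability assay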
Description: SANGER: Inhibition of human SW13 cell growth in a cell viability assay.

[65] = test system: NCI-H1623; assay: cells; format: functional, cell-based; conditions: Homo sapiens;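 also: cell viability assay used as the read-out for growth inhibition of NCI-H1623 cells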
Description: SANGER: Inhibition of human NCI-H1623 cell growth in a cell viability assay.

SMILES: Cc1nc(Nc2ncc(C(=O)Nc3c(C)cccc3Cl)s2)cc(N2CCN(CCO)CC2)n1 [DASATINIB]
- pIC50 [1]: < 5.89
- pIC50 [2]: < 5.89
- pIC50 [3]: < 5.89
- pIC50 [4]: < 5.89
- pIC50 [5]: < 5.89
- pIC50 [6]: < 5.89
- pIC50 [7]: 6.47
- pIC50 [8]: < 5.89
- pIC50 [9]: < 5.89
- pIC50 [10]: < 5.89
- pIC50 [11]: < 5.89
- pIC50 [12]: < 5.89
- pIC50 [13]: < 5.89
- pIC50 [14]: < 5.89
- pIC50 [15]: < 5.89
- pIC50 [16]: < 5.89
- pIC50 [17]: < 5.89
- pIC50 [18]: < 5.89
- pIC50 [19]: < 5.89

SMILES: CCn1c(-c2nonc2N)nc2cnc(Oc3cccc(NC(=O)c4ccc(OCCN5CCOCC5)cc4)c3)cc21 [GSK-269962A]
- pIC50 [1]: < 5.60
- pIC50 [2]: < 5.60
- pIC50 [3]: < 5.60
- pIC50 [4]: < 5.60
- pIC50 [5]: < 5.60
- pIC50 [6]: < 5.60
- pIC50 [7]: < 5.60
- pIC50 [8]: < 5.60
- pIC50 [9]: < 5.60
- pIC50 [10]: < 5.60
- pIC50 [11]: < 5.60
- pIC50 [12]: < 5.60
- pIC50 [13]: < 5.60
- pIC50 [14]: < 5.60
- pIC50 [20]: 5.84
- pIC50 [15]: < 5.60
- pIC50 [16]: < 5.60
- pIC50 [17]: < 5.60
- pIC50 [18]: < 5.60
- pIC50 [19]: < 5.60

SMILES: C[C@]12O[C@H](C[C@]1(O)CO)n1c3ccccc3c3c4c(c5c6ccccc6n2c5c31)CNC4=O [LESTAURTINIB]
- pIC50 [21]: 5.79
- pIC50 [22]: 6.06
- pIC50 [23]: < 5.70
- pIC50 [24]: 6.06
- pIC50 [25]: < 5.70
- pIC50 [26]: < 5.70
- pIC50 [27]: < 5.70
- pIC50 [28]: 5.99
- pIC50 [29]: < 5.70
- pIC50 [30]: 5.98
- pIC50 [31]: < 5.70
- pIC50 [32]: < 5.70
- pIC50 [33]: 5.71
- pIC50 [34]: < 5.70
- pIC50 [35]: 7.63
- pIC50 [36]: 5.86
- pIC50 [37]: < 5.70
- pIC50 [38]: < 5.70
- pIC50 [39]: 6.49
- pIC50 [13]: 7.72
- pIC50 [40]: 5.72
- pIC50 [41]: 6.40
- pIC50 [42]: 6.33
- pIC50 [43]: < 5.70
- pIC50 [44]: 6.36
- pIC50 [45]: 5.95
- pIC50 [46]: < 5.70
- pIC50 [47]: < 5.70
- pIC50 [48]: 6.47
- pIC50 [49]: 6.19
- pIC50 [20]: 6.23
- pIC50 [50]: 7.09
- pIC50 [51]: < 5.70
- pIC50 [52]: 7.50
- pIC50 [53]: 5.81
- pIC50 [54]: 6.72
- pIC50 [55]: 6.52
- pIC50 [56]: 6.83
- pIC50 [57]: 6.42
- pIC50 [58]: 5.81
- pIC50 [59]: 6.59
- pIC50 [60]: < 5.70
- pIC50 [61]: 6.16
- pIC50 [62]: 6.84
- pIC50 [63]: < 5.70
- pIC50 [64]: 6.21
- pIC50 [65]: 5.78

SMILES: Cc1[nH]c(/C=C2\C(=O)Nc3ccc(S(=O)(=O)Cc4c(Cl)cccc4Cl)cc32)c(C)c1C(=O)N1CCC[C@@H]1CN1CCCC1 [PHA-665752]
- pIC50 [1]: < 5.70
- pIC50 [2]: < 5.70
- pIC50 [3]: < 5.70
- pIC50 [4]: < 5.70
- pIC50 [5]: < 5.70
- pIC50 [6]: < 5.70
- pIC50 [7]: < 5.70
- pIC50 [8]: < 5.70
- pIC50 [9]: < 5.70
- pIC50 [10]: < 5.70
- pIC50 [11]: < 5.70
- pIC50 [12]: < 5.70
- pIC50 [13]: < 5.70
- pIC50 [14]: < 5.70
- pIC50 [15]: < 5.70
- pIC50 [16]: < 5.70
- pIC50 [17]: < 5.70
- pIC50 [18]: < 5.70
- pIC50 [19]: < 5.70

SMILES: CC[C@]1(O)C[C@@H]2CN(CCc3c([nH]c4ccccc34)[C@@](C(=O)OC)(c3cc4c(cc3OC)N(C)[C@H]3[C@@](O)(C(=O)OC)[C@H](OC(C)=O)[C@]5(CC)C=CCN6CC[C@]43[C@@H]65)C2)C1 [VINBLASTINE]
- pIC50 [21]: 7.59
- pIC50 [22]: 7.77
- pIC50 [23]: 7.91
- pIC50 [24]: 8.36
- pIC50 [25]: 7.53
- pIC50 [26]: 7.28
- pIC50 [27]: 8.10
- pIC50 [28]: 8.13
- pIC50 [29]: 7.16
- pIC50 [30]: 8.51
- pIC50 [31]: 7.90
- pIC50 [32]: < 7.00
- pIC50 [33]: 7.32
- pIC50 [34]: 7.52
- pIC50 [35]: 7.90
- pIC50 [36]: 8.37
- pIC50 [37]: 7.03
- pIC50 [38]: 7.73
- pIC50 [39]: 9.16
- pIC50 [13]: 8.09
- pIC50 [40]: 7.23
- pIC50 [41]: 7.79
- pIC50 [42]: 8.57
- pIC50 [43]: 7.12
- pIC50 [44]: 8.68
- pIC50 [45]: 7.12
- pIC50 [46]: 7.81
- pIC50 [47]: 7.99
- pIC50 [48]: 8.26
- pIC50 [49]: 7.70
- pIC50 [20]: 7.72
- pIC50 [50]: 9.02
- pIC50 [51]: 7.00
- pIC50 [52]: 8.22
- pIC50 [53]: 8.02
- pIC50 [54]: 8.99
- pIC50 [55]: 8.51
- pIC50 [56]: 7.34
- pIC50 [57]: 7.71
- pIC50 [58]: 7.81
- pIC50 [59]: 8.00
- pIC50 [60]: < 7.00
- pIC50 [61]: 8.25
- pIC50 [62]: 8.06
- pIC50 [63]: 8.47
- pIC50 [64]: 8.26
- pIC50 [65]: < 7.00
